From patent US7468364B2, “Carbapenem compounds” (Dainippon Sumitomo Pharma Co., Ltd., priority 2003, dated 2008)

Assay: Oral absorption test in rats
Type: in vivo
Details: male SD rats, oral 10 mg value/kg (as active substance)
Protocol: A compound of Example 1 of the present invention and a pivaloyloxymethyl ester derivative of the compound 32, carbapenem in which para-hydroxyphenyl group is directly substituted, which is described in the Journal of Medicinal Chemistry, Vol. 30, p 871-880, 1987 (which is one of the prior arts which are most relevant to the present invention) were orally administered to mice or rats. The concentration of the active substance in serum was measured by bioassay, and absolute bioavailability was compared respectively.
The test sample was prepared in the same manner as in the oral absorption test in mice. […] To thus treated rats were orally administered the test sample (10 mg value/kg (calculated into active substance)). […] The concentration of the active substance in the serum was measured by bioassay in the same manner as in the oral absorption in mice. […]
In regard to the test sample, the value of the concentration of the active substance in serum was plotted to the hours after administration, and calculated the concentration of the active substance-area under hours curve (AUC) or calculated reducing area under hours curve (AUC) from the concentration of the active substance. On the other hand, AUC when the active substance was intravenously administered was calculated as mentioned above. […]
The absolute availability (BA) was calculated based on the above formula.

Q: With `C[C@@H](O)[C@H]1C(=O)N2C(C(=O)OCOC(=O)C(C)(C)C)=C(c3ccc(O)cc3)C[C@H]12` [comparative compound] as the compound, how does the oral absorbability read?
A: Its oral absorbability is “did not show oral absorbability”.
